{"source": "paper PMC5908784", "about": "“Extracellular loops 2 and 3 of the calcitonin receptor selectively modify agonist binding and efficacy” (Biochemical Pharmacology, 2018)", "test_in_all_cases": "Homologous whole cell competition binding", "details_in_all_cases": "homologous competition of 125I-sCT(8-32), whole cells, mean ± S.E.M., SEM", "key": {"hCTR WT": {"molecular_target": "T1, hCTR WT (Homo sapiens, UniProt P30988)", "T1 construct": "expressed in transfected cells", "T1 sequence (P30988 25-474)": "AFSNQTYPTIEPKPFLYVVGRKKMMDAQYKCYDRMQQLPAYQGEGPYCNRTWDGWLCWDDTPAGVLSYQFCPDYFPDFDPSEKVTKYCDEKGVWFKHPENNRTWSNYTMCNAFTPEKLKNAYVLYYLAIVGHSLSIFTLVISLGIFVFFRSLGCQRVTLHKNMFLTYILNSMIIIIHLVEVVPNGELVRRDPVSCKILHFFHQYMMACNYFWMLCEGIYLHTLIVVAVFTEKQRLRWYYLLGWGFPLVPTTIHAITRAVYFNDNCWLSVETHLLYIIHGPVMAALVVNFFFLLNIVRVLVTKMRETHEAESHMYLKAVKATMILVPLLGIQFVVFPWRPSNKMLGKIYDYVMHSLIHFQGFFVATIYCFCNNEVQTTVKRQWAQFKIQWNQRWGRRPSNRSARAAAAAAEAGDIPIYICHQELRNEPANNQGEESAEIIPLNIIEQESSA", "how_it_was_run": "(§1)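 Homologous competition, intact cells, 4 °C overnight; tracer ^125I-sCT(8-32) 25–100 pM (two concs) vs cold sCT(8-32); NSB 1 μM cold peptide; γ counter; 3-param logistic IC50 → Cheng-Prusoff pKi; Bmax also estimated.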"}, "hCTR Y374A": {"molecular_target": "T2, hCTR Y374A (Homo sapiens, UniProt P30988, Y374A)", "T2 construct": "c-Myc (N); expressed in transfected cells", "T2 sequence (P30988 25-474 Y374A)": "T1 sequence (P30988 25-474) with Y350A", "how_it_was_run": "as §1"}, "hCTR V283A": {"molecular_target": "T3, hCTR V283A (Homo sapiens, UniProt P30988, V283A)", "T3 construct": "expressed in transfected cells", "T3 sequence (P30988 25-474 V283A)": "T1 sequence (P30988 25-474) with V259A", "how_it_was_run": "as §1"}, "hCTR W361A": {"molecular_target": "T4, hCTR W361A (Homo sapiens, UniProt P30988, W361A)", "T4 construct": "expressed in transfected cells", "T4 sequence (P30988 25-474 W361A)": "T1 sequence (P30988 25-474) with W337A", "how_it_was_run": "as §1"}}, "note": "Substitutions are numbered along the chain they refer to. Where no end group is shown, it is not given here."}
{"substance": "VLGKLSQELHKLQTYPRTNTGSGTP-NH2 [sCT(8-32)]", "values": [{"measurement": "Ki", "setting": "hCTR WT", "result": 0.2, "unit": "nM"}, {"measurement": "Ki", "setting": "hCTR Y374A", "result": 0.148, "unit": "nM"}, {"measurement": "Ki", "setting": "hCTR V283A", "result": 0.214, "unit": "nM"}, {"measurement": "Ki", "setting": "hCTR W361A", "result": 0.282, "unit": "nM"}]}
